Results taken from the NIST ThermoML archive (doi:10.1021/je300557g).

How the values were obtained:
[1] = 101.33 kPa, Liquid; for viscosity: Capillary tube (Ostwald / Ubbelohde) method; for mass density: Vibrating tube method
[2] = xn = mol fraction of the nth substance listed; details: 101 kPa, Liquid; for mass density: Vibrating tube method

CCCC[n+]1cccc(C)c1.F[B-](F)(F)F [1-butyl-3-methylpyridinium tetrafluoroborate]
[1]
Details | mass density [kg/m3] | viscosity [mPa·s]
293.15 K | 1185.66 | 246.62
303.15 K | 1178.86 | 129.91
313.15 K | 1172.11 | 76.46
323.15 K | 1165.37 | 48.18

CCCC[n+]1ccc(C)cc1.F[B-](F)(F)F [1-butyl-4-methylpyridinium tetrafluoroborate]
[1]
Details | mass density [kg/m3] | viscosity [mPa·s]
293.15 K | 1185.92 | 284.62
303.15 K | 1179.12 | 144.68
313.15 K | 1172.12 | 85.53
323.15 K | 1165.52 | 55.53

CCCC[n+]1ccccc1.F[B-](F)(F)F [1-butylpyridinium tetrafluoroborate]
[1]
Details | mass density [kg/m3] | viscosity [mPa·s]
293.15 K | 1217.11 | 220.54
303.15 K | 1210.83 | 119.52
313.15 K | 1203.72 | 71.11
323.15 K | 1196.68 | 45.59

CCCC[n+]1ccccc1.F[B-](F)(F)F [1-butylpyridinium tetrafluoroborate] + CCO
[2]
Details | kinematic viscosity, 303.15 K [m2/s] | kinematic viscosity, 313.15 K [m2/s] | kinematic viscosity, 323.15 K [m2/s] | mass density, 303.15 K [kg/m3] | mass density, 313.15 K [kg/m3] | mass density, 323.15 K [kg/m3]
x1 = 0.0482 | 1.42e-06 | 1.29e-06 | 1.15e-06 | 843.38 | 834.98 | 826.69
x1 = 0.0945 | 1.96e-06 | 1.68e-06 | 1.41e-06 | 892.42 | 884.28 | 876.45
x1 = 0.1932 | 3.17e-06 | 2.57e-06 | 2.06e-06 | 972.49 | 964.73 | 957.44
x1 = 0.2702 | 4.37e-06 | 3.45e-06 | 2.73e-06 | 1019.05 | 1011.49 | 1004.32
x1 = 0.3959 | 7.13e-06 | 5.43e-06 | 4.24e-06 | 1076.24 | 1068.89 | 1061.7
x1 = 0.4954 | 1.03e-05 | 7.61e-06 | 5.94e-06 | 1110.49 | 1103.28 | 1096.06
x1 = 0.5999 | 1.57e-05 | 1.14e-05 | 8.55e-06 | 1139.33 | 1132.29 | 1125.08
x1 = 0.699 | 2.36e-05 | 1.65e-05 | 1.2e-05 | 1161.67 | 1154.79 | 1147.65
x1 = 0.7963 | 3.58e-05 | 2.41e-05 | 1.7e-05 | 1179.99 | 1173.24 | 1166.21
x1 = 0.8477 | 4.48e-05 | 2.95e-05 | 2.05e-05 | 1188.5 | 1181.82 | 1174.82
x1 = 0.8984 | 5.83e-05 | 3.73e-05 | 2.53e-05 | 1196.25 | 1189.62 | 1182.65
x1 = 0.9461 | 7.37e-05 | 4.58e-05 | 3.05e-05 | 1203.06 | 1196.46 | 1189.47

CCO [ethanol]
[1]
Details | mass density [kg/m3] | viscosity [mPa·s]
293.15 K | 789.48 | 1.18
303.15 K | 781.3 | 0.981
313.15 K | 772.57 | 0.822
323.15 K | 763.65 | 0.6939

CO [methanol]
[1]
Details | mass density [kg/m3] | viscosity [mPa·s]
293.15 K | 791.24 | 0.5833
303.15 K | 781.81 | 0.507
313.15 K | 772.29 | 0.4438
323.15 K | 762.63 | 0.3873
